Structures can show the parent of a compound that is named as a salt. Where two headings read alike, the source gives them in different places.
Tests used:
[1] = system: paw edema induced by exogenous PLA2 (snake, A. piscivorus piscivorus); experiment: In vivo PLA2 murine paw edema assay; parameters: species or system mouse (male CD-1); settings: for ED50 at +10 min: mouse; for change in vivo at 1 mg/kg: Mus musculus, ip, 0.5 h; for % Change in Edema 30 min / change in vivo at 1 mg/kg: 30 min
Experimental: The ability of the compounds of the invention to inhibit paw edema induced by the exogenous administration of PLA2 is measured in the in vivo PLA2 murine paw edema assay.
(§1) The assay is carried out as follows:
Non-fasted, male CD-1 mice (8 weeks old; 31-36 grams) are placed in plastic boxes in groups of six. The right hind paw volume is measured using mercury plethysmography (zero time). […] A solution of purified PLA2, from the diamond back cotton mouth snake (A. piscivorus piscivorus) is prepared in saline at a concentration of 6 μg/ml. Fifty (50) μl (0.3 μg) of this PLA2 solution is injected subcutaneously into the right hind paw with a plastic 1 ml plastic syringe (27 gauge, 1" needle). Paw volume of the injected paw is measured again at 10 minutes, 30 minutes and 60 minutes after PLA2 injection. Animals are euthanized with CO2 at the completion of the study.
The paw edema is calculated by subtracting the zero time volume from the volume recorded at each time period. Mean paw edema for each treatment group is then calculated and expressed as (μl±S.E.). Drug effects are expressed as a percent change from control (vehicle) values. Statistical significance is determined by a one-way analysis of variance with LSD comparison to control (p<0.05). ED50 's are determined using repression analysis.

[2] = system: TxB2 synthesis (cyclooxygenase) by rat glycogen-elicited polymorphonuclear leukocytes; experiment: Inhibition of TxB2 synthesis by rat glycogen-elicited PMN (cyclooxygenase); assay type: cell-based, rat (female Wistar); settings: for inhibition at 0.5 µM: negative values denote potentiation of cyclooxygenase; for IC50: rat PMN, read-out: IC50 (TxB2 synthesis)
Experimental: (§2) Rat polymorphonuclear leukocytes (PMNs) are obtained from female Wistar rats (150-200 g) which receive an injection of 6% glycogen (10 ml i.p.). Rats are sacrificed 18-24 hours post injection by CO2 asphyxiation and the elicited cells are harvested by peritoneal lavage using physiological saline (0.9% NaCl). The exudate is centrifuged at 400×g for 10 minutes. The supernatant fluid is discarded and the cell pellet is resuspended to a concentration of 2.0×10^7 cells/ml in HBSS containing Ca^++ and Mg^++ and 10 μM L-cysteine.
(§3) To 1 ml aliquots of cell suspension, test drugs or vehicle are added, then preincubated at 37° C. for 10 minutes. A 23187 (1 μM), [^3 H]-AA (3.0 μCi/ml) and unlabeled AA (1 μM) are then added and the samples are further incubated for 10 minutes. The reaction is terminated by centrifugation and pelleting cells. Supernatants are then analyzed by HPLC analysis on a 15 cm×4.6 mm ID supelcosil LC-18 (Supelco)(3M) column, using a two solvent system at a flow rate of 1.4 ml total flow as follows:
(§4) Percent solvent changes are accomplished in a linear fashion.
(§5) Injections: 150 μl of each supernatant is injected directly onto column and ^3 H arachidonic acid metabolites are monitored using an on-line radioactivity detector (Ramona, IN/US, Fairfield, NJ).
(§6) Standards: 10^4 -2.0×10^4 dpm of eicosanoids of interest are injected in 90 μl EtOH cocktail.
(§7) Co-chromatography with standard [^3 H] leukotriene B4 (LTB4) in medium of stimulated PMN exposed to drug is compared to that found in medium of stimulated cells exposed to no drug, generating percent inhibition.
(§8) Results are expressed as percent inhibition at a given compound dose or as an IC50 value.
In this assay, the procedure of Example 19 is carried out as described. However, in order to determine cyclooxygenase activity, the samples are co-chromatographed with authentic reference [^3 H]-TxB2.
The results are calculated as in Example 19 and presented below: […]

[3] = system: LTB4 synthesis by rat glycogen-elicited polymorphonuclear leukocytes (lipoxygenase); experiment: Inhibition of LTB4 synthesis by rat glycogen-elicited polymorphonuclear leukocytes (PMN); assay type: cell-based, rat (female Wistar); settings: A 23187 and exogenous AA; for inhibition at 0.5 µM: negative value denotes potentiation
Description: This is especially true with respect to 5,12-diHETE, which is also denoted as LTB4 [see Ford-Hitchinson, J. Roy. Soc. Med., 74, 831 (1981)]. Compounds which inhibit the PLA2 -mediated release of arachidonic acid thereby effectively prevent the oxidation of arachidonic acid to the various leukotriene products via the lipoxygenase cascade. Accordingly, the specificity of action of PLA2 inhibitors can be determined by the activity of test compounds in this assay, which measures the ability of compounds to inhibit the synthesis of LTB4 by rat glycogen-elicited polymorphonuclear leukocytes (PMN) in the presence of exogenous substrate.
as §1, §2, §3
Gradient: (system is equillibrated with Solvent A)
as §4, §5, §6, §7, §8

[4] = molecular target: T1, human synovial fluid PLA2 (Homo sapiens, UniProt P14555); experiment: In vitro isolated phospholipase A2 assay, human synovial fluid PLA2; assay type: biochemical; settings: 10 μM; human synovial fluid; negative values denote potentiation; read-out: % Inhibition at 10 μM HSF
T1 construct: Purified human synovial fluid; from tissue; host or cells: human synovial fluid
T1 sequence (P14555 21-144): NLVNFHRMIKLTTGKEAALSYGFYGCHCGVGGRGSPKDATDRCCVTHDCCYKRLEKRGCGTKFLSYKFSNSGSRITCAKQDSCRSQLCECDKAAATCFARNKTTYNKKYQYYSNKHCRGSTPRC
Experimental: The compounds of the invention are tested in an in vitro isolated phospholipase A2 assay to determine the ability of the test compounds to inhibit the release of arachidonic acid from an arachidonic acid-containing substrate by the action of phospholipase A2 enzyme from human and non-human sources.
This assay is carried out as follows:
Into a 15 mL polypropylene tube are added the following:
*pre-incubate at room temperature 30 min prior to substrate addition.
^5 Stock 10 mM prepared in dimethyl sulfoxide. Make 1:2 dilution with
dimethyl sulfoxide and add 1 μ L to 100 μL assay tube.
^6 Two human PLA2 enzymes are used:
b) Purified human synovial fluid.
Incubate the 100 μL reaction mixture for 10 minutes at 37° C. in a shaking water bath. The reaction is terminated by the addition of 2 mL tetrahydrofuran, followed by vortexing. NH2 columns (100 μg/mL--Analytichem International) are conditioned with 0.5 mL tetrahydrofuran followed by 0.5 mL tetrahydrofuran/water (2 mL:0.1 mL, v/v).
The sample is loaded onto the columns and slowly drawn through them. The hydrolyzed arachidonic acid retained in the columns is eluted therefrom with 1 mL tetrahydrofuran/glacial acetic acid (2%). The arachidonic acid is transferred to scintillation vials and quantitated by β-counting analysis. A "total counts" sample is prepared by pipetting 25 μL ^3 H-arachidonate E. coli directly into a scintillation vial to which is added 1 mL tetrahydrofuran. 10 mL aquasol (scintillation cocktail) is added to all samples. [formula]

human platelet PLA2 = molecular target: T2, human platelet PLA2 (Homo sapiens, UniProt P14555); experiment: In vitro isolated phospholipase A2 assay, human platelet PLA2 (arachidonic acid release from 3H-AA E. coli substrate); assay type: biochemical; settings: human platelet; for inhibition at 10 µM: negative values denote potentiation, read-out: % Inhibition at 10 μM HP
T2 construct: Semipurified human platelet acid extract PLA2; from tissue; host or cells: human platelets (semipurified acid extract)
T2 sequence (P14555 21-144): T1 sequence (P14555 21-144)

Row | inhibition at 10 µM [4] [%] | Molecule | inhibition at 0.5 µM ([2]; Rattus norvegicus, Leukocyte) [%] | inhibition at 0.5 µM ([3]; Leukocyte) [%] | % Change in Edema 10 min ([1]; 10 mg/kg i.p.) | % Change in Edema 30 min ([1]; 10 mg/kg i.p.) [%] | other results
1 | – | COc1cccc2c1cc([N+](=O)[O-])c1c(C(=O)O)cc3c(c12)OCO3 [Aristolochic Acid, reference compound] | – | – | – | – | ED50 at +10 min ([1]; p.o., standard drugs): Not Active
2 | – | C[C@@H]1C[C@H]2[C@@H]3CCC4=CC(=O)C=C[C@]4(C)[C@@]3(F)[C@@H](O)C[C@]2(C)[C@@]1(O)C(=O)CO [Dexamethasone, reference compound] | – | – | – | – | ED50 at +10 min ([1]; p.o. 3 hr, standard drug): 10 mg/kg
3 | – | COC(=O)Cc1cc(OCc2ccc3ccccc3n2)ccc1Nc1c(Cl)cccc1Cl [Example 1, 2-[(2,6-Dichlorophenyl)amino]-5-(2-quinolinylmethoxy)-benzene acetic acid methyl ester ethanedioate (1:1)] | 4 | 96 | -77% | -37 | % Change in Edema 3 min ([1]; 1 mg/kg i.p.): -10%; % Change in Edema 10 min ([1]; 1 mg/kg i.p.): -31%; % Change in Edema 3 min ([1]; 10 mg/kg i.p.): -39%; change in vivo at 1 mg/kg ([1]; 1 mg/kg i.p.): -23%
4 | – | O=C(O)Cc1cc(OCc2ccc3ccccc3n2)ccc1Nc1c(Cl)cccc1Cl [Example 4, 2-[(2,6-Dichlorophenyl)amino]-5-(2-quinolinylmethoxy)benzene acetic acid 2-amino-2-(hydroxymethyl)-1,3-propanediol salt (1:1)] | – | – | – | – | IC50 [2]: 3700 nM
5 | -127 | COC(=O)Cc1cc(OCc2ccc3ccc(Cl)cc3n2)ccc1Nc1c(Cl)cccc1Cl [Example 5, 5-[(7-Chloro-2-quinolyl)methoxy]-2-[(2,6-dichlorophenyl)amino]benzene acetic acid methyl ester] | 0 | 56 | – | – | inhibition at 10 µM ([2]; Rattus norvegicus, Leukocyte, at 10 μM): 27%; inhibition at 10 µM ([3]; Leukocyte, at 10 μM): 95%; inhibition at 10 µM (human platelet PLA2): -5.3%
6 | – | COC(=O)Cc1cc(OCc2nc3ccccc3n2C)ccc1Nc1c(Cl)cccc1Cl [Example 10, 2-[(2,6-Dichlorophenyl)amino]-5-[(1-methyl-1H-benzimidazol-2-yl)methoxy]benzene acetic acid methyl ester] | 32 | 65 | -49% | -36 | % Change in Edema 10 min ([1]; 1 mg/kg i.p.): -29%; change in vivo at 1 mg/kg ([1]; 1 mg/kg i.p.): -20%
7 | 33.3 | Cn1c(COc2ccc(Nc3c(Cl)cccc3Cl)c(CC(=O)O)c2)nc2ccccc21 [Example 11, acetic acid] | -8 | -6 | – | – | –
8 | -11 | O=C1Cc2cc(OCc3ccc4ccccc4n3)ccc2N1c1c(Cl)cccc1Cl [Example 13] | 10 | 89 | – | – | % Inhibition HP (human platelet PLA2; "at 50 SM"): 12.5%
9 | -24 | O=C1Cc2cc(OCc3ccc4ccccc4n3)ccc2N1c1ccccc1 [Example 15, 1-Phenyl-5-(2-quinolinylmethoxy)-1,3-dihydro-2H-indol-2-one] | -9 | 40 | – | – | –
10 | -4.3 | O=C(O)Cc1cc(OCc2ccc3ccccc3n2)ccc1Nc1ccccc1 [Example 16, 2-(Phenylamino)-5-(2-quinolinylmethoxy)benzene acetic acid] | 10 | 90 | – | – | inhibition at 10 µM (human platelet PLA2): 14.2%
11 | 5.1 | O=C1Cc2cc(OCc3ccc4ccc(Cl)cc4n3)ccc2N1c1c(Cl)cccc1Cl [Example 18, 1-(2,6-Dichlorophenyl)-5-[7-chloro-2-(quinolinylmethoxy)]-1,3-dihydro-2H-indol-2-one] | – | – | – | – | inhibition at 10 µM (human platelet PLA2): 2.2%
12 | – | COc1ccc2cc([C@H](C)C(=O)O)ccc2c1 [Naproxen, reference compound] | – | – | – | – | ED50 at +10 min ([1]; p.o., standard drugs): 18 mg/kg
13 | – | Luffarrellolide [reference compound] | – | – | – | – | ED50 at +10 min ([1]; p.o., standard drugs): Not Active

Row | Molecule | inhibition at 10 µM [4] [%] | inhibition at 0.5 µM ([2]; Rattus norvegicus, Leukocyte) [%] | inhibition at 0.5 µM ([3]; Leukocyte) [%] | % Change in Edema 10 min ([1]; 10 mg/kg i.p.) | % Change in Edema 30 min ([1]; 10 mg/kg i.p.) [%] | other results
14 | O=C(O)Cc1cc(OCc2ccc3ccccc3n2)ccc1Nc1c(Cl)cccc1Cl [Example 3, 2-[(2,6-Dichlorophenyl)amino]-5-(2-quinolinylmethoxy)benzene acetic acid sodium salt] | 21.7 | – | – | +12% | -10 | IC50 ([2]; acetic acid sodium salt): > 1000 nM; IC50 ([3]; acetic acid sodium salt): 20 nM; % Change in Edema 60 min ([1]; 10 mg/kg i.p.): +12%
15 | O=C(O)Cc1cc(OCc2ccc3ccc(Cl)cc3n2)ccc1Nc1c(Cl)cccc1Cl [Example 6, 5[(7-Chloro-2-quinolinyl)methoxy]-2-[(2,6-dichlorophenyl)amino]benzene acetic acid] | 38.8 | 26 | 80 | -24% | -24 | inhibition at 10 µM (human platelet PLA2): -8.6%; % Change in Edema 3 min ([1]; 1 mg/kg i.p.): -4%; % Change in Edema 10 min ([1]; 1 mg/kg i.p.): -18%; % Change in Edema 60 min ([1]; 10 mg/kg i.p.): -32%; % Change in Edema 10 min ([1]; 50 mg/kg p.o.): -18%; % Change in Edema 30 min ([1]; 50 mg/kg p.o.): -39%; % Change in Edema 60 min ([1]; 50 mg/kg p.o.): -10%; change in vivo at 1 mg/kg ([1]; 1 mg/kg i.p.): -12%
16 | CONC(=O)Cc1cc(OCc2ccc3ccccc3n2)ccc1Nc1c(Cl)cccc1Cl [Example 12] | -41.5 | -2 | 70 | -15% | -45 | % Change in Edema 60 min ([1]; 10 mg/kg i.p.): -28%; % Change in Edema 10 min ([1]; 50 mg/kg p.o.): -2%; % Change in Edema 30 min ([1]; 50 mg/kg p.o.): -36%; % Change in Edema 60 min ([1]; 50 mg/kg p.o.): -22%
